In US20190185865A1, “USE OF PROKARYOTIC TRANSCRIPTIONAL ACTIVATORS AS METABOLITE BIOSENSORS IN EUKARYOTIC CELLS” (Danmarks Tekniske Universitet, priority 2016, published 2019):

System: BenM
Assay: CCM-induced GFP expression in yeast strains combining BenM expression cassettes and CYC1p reporter promoter variants (flow cytometry)
Format: cell-based, Saccharomyces cerevisiae
Settings: for FC (+/−CCM): 1.4 mM CCM, 24 h
Source text: Strains, chemicals and media. Saccharomyces cerevisiae CEN.PK102-5B (MATa ura3-52 his3Δ1 leu2-3/112 MAL2-8^c SUC2), CEN.PK113-5A (MATa, trp1 his3Δ1 leu2-3/112 MAL2-8^c SUC2) and CEN.PK113-7D (wild type, MATa MAL2-8^c SUC2) strains were obtained from Peter Kotter (Johann Wolfgang Goethe-University Frankfurt, Germany). In principal any other yeast strains may be used, such as one obtained from public repository EuroScarf. EasyClone plasmids used in this work are described in Jensen, N. B. et al. EasyClone: method for iterative chromosomal integration of multiple genes in Saccharomyces cerevisiae. FEMS Yeast Res. 14, 238-48 (2014). Escherichia coli strain DH5a was used as a host for cloning and plasmid propagation. The chemicals and Pfu TURBO DNA polymerase were commercially obtained (Sigma-Aldrich and Agilent Technologies Inc., respectively). All acids used were >97% in purity. S. cerevisiae cells were grown at 30° C. in synthetic complete medium as well as drop-out media and agar plates were prepared using pre-mixed drop-out powders (Sigma-Aldrich). Mineral medium was freshly prepared as described previously. For all media containing diacids, 1.4 mM of the individual diacids were dissolved in mineral medium and pH adjusted to 4.5 before sterile filtration. For CCM several dilutions were made to examine the performance of the CCM biosensor. For naringenin, mineral medium was supplemented with 0, 0.05, 0.10 or 0.20 mM naringenin, dissolved in ethanol, the final ethanol concentration for each medium was 2% (v/v), and the final pH of the medium was adjusted to 6.0. E. coli cells were grown at 37° C. in Luria-Bertani (LB) medium supplemented with 100 μg/mL ampicillin.
Events were analyzed using FlowJo software (TreeStar Inc.).

[1] = strain MeLS0131, 491bp_CYC1p:GFP
[2] = strain MeLS0132, 272bp_CYC1p:GFP
[3] = strain MeLS0133, 249bp_CYC1p:GFP
[4] = strain MeLS0134, 209bp_CYC1p:GFP
[5] = strain MeLS0135, 491bp_CYC1p_BenO_T1:GFP
[6] = strain MeLS0136, 272bp_CYC1p_BenO_T1:GFP
[7] = strain MeLS0137, 249bp_CYC1p_BenO_T1:GFP
[8] = strain MeLS0138, 209bp_CYC1p_BenO_T1:GFP
[9] = strain MeLS0177, 491bp_CYC1p_BenO_T2:GFP
[10] = strain MeLS0178, 491bp_CYC1p_BenO_T1/T2:GFP
[11] = strain MeLS0180, 209bp_CYC1p_BenO_T2:GFP
[12] = strain MeLS0181, 209bp_CYC1p_BenO_T1/T2:GFP
[13] = strain MeLS0259, 272bp_CYC1p_BenO_T2:GFP
[14] = strain MeLS0260, 249bp_CYC1p_BenO_T2:GFP
[15] = strain MeLS0261, 272bp_CYC1p_BenO_T1/T2:GFP
[16] = strain MeLS0262, 249bp_CYC1p_BenO_T1/T2:GFP

SMILES: O=C(O)/C=C\C=C/C(=O)O [CCM, cis, cis-muconic acid]
- Mean fluorescense intensities of GFP (24 h), CCM (1.4 mM) [1]: 2899
- FC (+/−CCM) [1]: 1.042
- Mean fluorescense intensities of GFP (24 h), CCM (1.4 mM) [2]: 211
- FC (+/−CCM) [2]: 1.213
- Mean fluorescense intensities of GFP (24 h), CCM (1.4 mM) [3]: 219
- FC (+/−CCM) [3]: 1.043
- Mean fluorescense intensities of GFP (24 h), CCM (1.4 mM) [4]: 171
- FC (+/−CCM) [4]: 1.13
- Mean fluorescense intensities of GFP (24 h), CCM (1.4 mM) [5]: 801
- FC (+/−CCM) [5]: 1.062
- Mean fluorescense intensities of GFP (24 h), CCM (1.4 mM) [6]: 160
- FC (+/−CCM) [6]: 1.032
- Mean fluorescense intensities of GFP (24 h), CCM (1.4 mM) [7]: 180
- FC (+/−CCM) [7]: 1.151
- Mean fluorescense intensities of GFP (24 h), CCM (1.4 mM) [8]: 167
- FC (+/−CCM) [8]: 1.133
- Mean fluorescense intensities of GFP (24 h), CCM (1.4 mM) [9]: 698
- FC (+/−CCM) [9]: 1.088
- Mean fluorescense intensities of GFP (24 h), CCM (1.4 mM) [10]: 241
- FC (+/−CCM) [10]: 0.9731
- Mean fluorescense intensities of GFP (24 h), CCM (1.4 mM) [11]: 165
- FC (+/−CCM) [11]: 1.088
- Mean fluorescense intensities of GFP (24 h), CCM (1.4 mM) [12]: 165
- FC (+/−CCM) [12]: 1.102
- Mean fluorescense intensities of GFP (24 h), CCM (1.4 mM) [13]: 201
- FC (+/−CCM) [13]: 1.002
- Mean fluorescense intensities of GFP (24 h), CCM (1.4 mM) [14]: 313
- FC (+/−CCM) [14]: 0.909
- Mean fluorescense intensities of GFP (24 h), CCM (1.4 mM) [15]: 257
- FC (+/−CCM) [15]: 0.7988
- Mean fluorescense intensities of GFP (24 h), CCM (1.4 mM) [16]: 203
- FC (+/−CCM) [16]: 1
